Results taken from ChEMBL document CHEMBL4346733, “Evaluation of amidoxime derivatives as prodrug candidates of potent bis-cationic antimalarials” (Bioorg Med Chem Lett, 2019).
pIC50: −log10 of the molar value. Calls of active or inactive are those of the source. The rule behind the calls is not given here.

How the values were obtained:
Plasmodium falciparum [1] = test: Antimalarial activity against chloroquine-sensitive Plasmodium falciparum Nigerian after 48 hrs by [3H]-hypoxanthine incorporation assay; type: functional, organism-based
[2] = tested on: Plasmodium vinckei petteri; test: Antimalarial activity against Plasmodium vinckei petteri 279BY infected in Swiss mouse assessed as reduction in parasitemia administered once daily via intraperitoneal route starting from day 1 to day 4 post infection measured on day 5 Giemsa staining based flow cytometric analysis; type: functional; conditions: ip
[3] = tested on: Plasmodium vinckei petteri; test: Antimalarial activity against Plasmodium vinckei petteri 279BY infected in Swiss mouse assessed as reduction in parasitemia administered once daily via oral gavage starting from day 1 to day 4 post infection measured on day 5 Giemsa staining based flow cytometric analysis; type: functional
[4] = Retention time of compound at 0.05 mg/ml by HPLC analysis; type: physicochemical
[5] = Stability of compound in human plasma at 1000 ug/ml up to 120 mins by HPLC-UV analysis; type: ADME, cell-free; conditions: 2 h
[6] = Retention time of compound in human liver microsomes at 0.5 mM after 2 hrs HPLC-UV analysis; type: ADME, Microsome; conditions: 500 µM
[7] = Stability of compound in human blood at 1000 ug/ml up to 120 mins by HPLC-UV analysis; type: ADME, tissue-based; conditions: 2 h
[8] = Drug metabolism in human liver microsomes assessed as disappearance of parent compound at 0.5 mM after 2 hrs by HPLC-UV analysis; type: ADME, Microsome; conditions: read-out: Drug metabolism
Plasmodium falciparum [9] = test: Antimalarial activity against chloroquine-sensitive Plasmodium falciparum Nigerian infected in human blood after 48 hrs by [3H]-hypoxanthine incorporation assay; type: functional, organism-based
[10] = Drug metabolism in human liver microsomes assessed as 1-(4-N-pyrrolidinylamidinophenoxy)-8-N-pyrrolidinylamidinooctane dihydrochloride formation by measuring retention time of metabolite at 0.5 mM after 2 hrs by LC-MS analysis; type: ADME, Microsome; conditions: 500 µM
[11] = Drug metabolism in human liver microsomes assessed as monoamidine-1 formation by measuring retention time of metabolite at 0.5 mM after 2 hrs by HPLC-UV analysis; type: ADME, Microsome; conditions: 500 µM
[12] = Drug metabolism in human liver microsomes assessed as 1-(4-Amidinophenoxy)-8-amidinooctane dihydrochloride formation by measuring retention time of metabolite at 0.5 mM after 2 hrs by HPLC-UV analysis; type: ADME, Microsome; conditions: 500 µM
[13] = tested on: Plasmodium vinckei petteri; test: (§1) Antimalarial activity against Plasmodium vinckei petteri 279BY infected in Swiss mouse assessed as reduction in parasitemia at 20 mg/kg, ip once daily for 4 consecutive days starting from day 1 to day 4 post infection and measured on day 5 Giemsa staining based flow cytometric analysis; type: functional, organism-based
[14] = tested on: Plasmodium vinckei petteri; test: Selectivity index, ratio of ED50 for antimalarial activity against Plasmodium vinckei petteri 279BY infected in Swiss mouse administered via intraperitoneal route to ED50 for antimalarial activity against Plasmodium vinckei petteri 279BY infected in Swiss mouse administered via oral route; type: functional
[15] = tested on: Plasmodium vinckei petteri; test: as §1, with “dosed intraperitoneally” for “20 mg/kg, ip”, “28 by” for “5”; type: functional; design: scale not given: the % may be the effect or the level left
[16] = Drug metabolism in human liver microsomes assessed as 1-(4-N-isopropylamidinophenoxy)-8-N-isopropylamidinooctane dihydrochloride formation by measuring retention time of metabolite at 0.5 mM after 2 hrs by HPLC-UV analysis; type: ADME, Microsome; conditions: 500 µM
[17] = Drug metabolism in human liver microsomes assessed as 1-(4-N-isopropylamidinophenoxy)-8-N-isopropylamidinooctane dihydrochloride formation by measuring disappearance of parent compound at 0.5 mM after 2 hrs by HPLC-UV analysis; type: ADME, Microsome; conditions: 500 µM

SMILES	Retention_time [4]	pIC50 (Plasmodium falciparum [9])	ED50 [2]	ED50 [3]	further results
Cc1c(CCO)sc[n+]1CCCCCCCCCCCCC(=N)N	–	–	–	–	pIC50 (Plasmodium falciparum [1]): 8.66
COc1cccc(/C(=N/O)NCCCCCCCCCCCCN/C(=N\O)c2cccc(OC)c2)c1	–	–	> 20 mg/kg	> 90 mg/kg	–
C[C@H]1[C@H](OC(=O)CCC(=O)O)O[C@@H]2O[C@@]3(C)CC[C@H]4[C@H](C)CC[C@@H]1[C@@]24OO3 [ARTESUNATE]	–	–	1.2 mg/kg	–	–
O/N=C(\NCCCCCCCCCCCCN/C(=N\O)c1ccccc1)c1ccccc1	–	–	> 20 mg/kg	> 90 mg/kg	–
CO/N=C(\NCCCCCCCCCCCCN/C(=N\OC)c1cccc(OC)c1)c1cccc(OC)c1	–	–	> 20 mg/kg	> 90 mg/kg	–
Cl.Cl.N=C(N)CCCCCCCCOc1ccc(C(=N)N)cc1	12.9 min	7.29	9 mg/kg	> 90 mg/kg	–
N=C(N)c1ccc(OCCCCCOc2ccc(C(=N)N)cc2)cc1 [PENTAMIDINE]	25.4 min	–	–	–	Retention_time [6]: 25.1 min; metabolised at 2 h, 500 µM [8]: 82%
Br.Br.N/C(=N\O)c1ccc(OCCCCCCCC/C(N)=N\O)cc1	11.5 min	5.70	> 10 mg/kg	> 180 mg/kg	Stability [5]: Stable; Retention_time [6]: 15.6 min; Retention_time [11]: 16.5 min; Retention_time [12]: 17.3 min; Stability [7]: Stable; metabolised at 2 h, 500 µM [8]: 7%
CO/N=C(\NCCCCCCCCCCCCN/C(=N\OC)c1ccccc1)c1ccccc1	–	–	> 20 mg/kg	> 90 mg/kg	–
COc1ccc(/C(=N/O)NCCCCCCCCCCCCN/C(=N\O)c2ccc(OC)c(OC)c2)cc1OC	–	–	9.1 mg/kg	> 90 mg/kg	–
Cc1c(CCO)sc[n+]1CCCCCCCCCCCOc1ccc(/C(N)=N/O)cc1.[Br-]	–	6.50	> 20 mg/kg	> 90 mg/kg	–
CO/N=C(\NCCCCCCCCCCCCN/C(=N\OC)c1ccc(OC)c(OC)c1)c1ccc(OC)c(OC)c1	–	–	> 20 mg/kg	> 90 mg/kg	–
Cl.Cl.N=C(CCCCCCCCOc1ccc(C(=N)N2CCCC2)cc1)N1CCCC1	11.8 min	7.80	1.4 mg/kg	51 mg/kg	–
Br.Br.CC(C)N/C(=N\O)c1ccc(OCCCCCCCC/C(=N\O)NC(C)C)cc1	13.1 min	–	> 20 mg/kg	> 180 mg/kg	Stability [5]: Stable; Retention_time [16]: 10 min; Retention_time [6]: 13.3 min; Retention_time [11]: 12.1 min; Drug metabolism [17]: 90%; Stability [7]: Stable; metabolised at 2 h, 500 µM [8]: 6%
CCN(CC)CCCC(C)Nc1ccnc2cc(Cl)ccc12 (centres undefined) [CHLOROQUINE]	–	–	1.1 mg/kg	3.4 mg/kg	–

Second part, led by results:

Retention_time [4]	pIC50 (Plasmodium falciparum [9])	SMILES	ED50 [2]	ED50 [3]	further results
22.3 min	–	N/C(=N\O)c1ccc(OCCCCCOc2ccc(/C(N)=N/O)cc2)cc1 [PENTAMIDINE DAO]	–	–	Stability [5]: Stable; Retention_time [6]: 29 min; Stability [7]: Stable; metabolised at 2 h, 500 µM [8]: 3%
–	4.62	COc1ccc(/C(=N/O)NCCCCCCCCCCCCN/C(=N\O)c2ccc(OC)cc2)cc1	> 20 mg/kg	> 90 mg/kg	–
12.6 min	–	Br.Br.O/N=C(/c1ccc(OCCCCCCCC/C(=N\O)N2CCCC2)cc1)N1CCCC1	10 mg/kg	> 100 mg/kg	Stability [5]: Stable; Retention_time [6]: 12.3 min; Retention_time [10]: 11.8 min; Stability [7]: Stable; metabolised at 2 h, 500 µM [8]: 14%
–	6.71	Cl.Cl.N=C(N)CCCCCCCCCCCOc1ccc(C(=N)N)cc1	2.2 mg/kg	–	–
–	6.44	Cc1c(CCO)sc[n+]1CCCCCCCCOc1ccc(/C(N)=N/O)cc1.[Br-]	> 20 mg/kg	85 mg/kg	Activity [13]: inactive; Ratio ED50 [14]: >0.23; Activity [15]: 100%
–	6.28	COCCc1sc[n+](CCCCCCCCCCCOc2ccc(/C(N)=N/O)cc2)c1C.[Br-]	8.8 mg/kg	> 90 mg/kg	–
10.1 min	8.02	CC(C)NC(=N)CCCCCCCCOc1ccc(C(=N)NC(C)C)cc1.Cl.Cl	2.8 mg/kg	110 mg/kg	–
–	6.62	Cc1c(CCO)sc[n+]1CCCCCCCCCCCC/C(N)=N/O.[Br-]	20 mg/kg	> 180 mg/kg	–
